This is an account of results in patent publication US6583177B2, “Leukotriene B4 antagonist compounds and method for treatment” (Ono Pharmaceutical Co., Ltd., priority 1994, dated 2003).

One assay has as its target T1, LTB4 receptor (Homo sapiens, UniProt Q15722).
T1 construct: The reaction was started by addition of a thoroughly mixed PMN cell suspension (1.6×10^6 cells); endogenous in cells; host or cells: human polymorphonuclear leukocytes (PMN), whole-cell suspension
The experiment in a line: Binding inhibition against 3H-LTB4 on the human polymorphonuclear leukocyte (PMN). To be noted: percentage of inhibition of specific 3H-LTB4 (4nM) binding to human PMN, 0° C. for 20 min. As for the experimental part:
Binding Inhibition Against ^3H-LTB4 on the Human Polymorphonuclear Leukocyte (PMN)
0.049 ml Hanks balanced salt solution (HBSS), 0.001 ml test compound and 0.05 ml ^3H-LTB4 (4nM) were added to polypropylene tubes and mixed. The reaction was started by addition of a thoroughly mixed PMN cell suspension (1.6×10^6 cells), followed by incubation at 0° C. for 20 min. The reaction was terminated by the addition of ice-cold HBSS (2.5 ml). PMNs were harvested by vacuum filtration through Whatman GF/C glass fiber filters on a Brandel cell harvester (BRANDEL, M-24R). The filters were then washed 2 times to remove free ^3H-LTB4 with 2.5 ml of the ice-cold PBS (−) solution. The filters were transferred to each vial, and equilibrated after adding 8 ml ACS II cocktail (Amersham). The radioactivity was measured by liquid scintillation counter (Aloka, LSC-5100).
Specific binding of ^3H-LTB4 to the LTB4 receptor was defined as total binding minus nonspecific binding. Nonspecific binding was the amount of ^3H-LTB4 binding in the presence of 1.5 μM LTB4 instead of the test compound. The inhibitory effect of test compound was calculated from the following equation.
The percentage of inhibition (%)=100−(B1/B0×100)
B1: Specific ^3H-LTB4 binding in presence of test compound
B0: Specific ^3H-LTB4 binding in absence of test compound
The compounds of the formula (IB), of the present invention have an antagonistic activity on LTB4. The results which are measured by method as hereinbefore described in Example 1(A), are shown the following Table 18.

Assay [1] concerns the target T2, trypsin (derived from bovine pancreas) (Bos taurus, UniProt P00760).
T2 construct: a solution of 80 mU/ml trypsin (derived from bovine pancreas) (50 μl); from tissue; host or cells: bovine pancreas
T2 sequence (P00760 24-246): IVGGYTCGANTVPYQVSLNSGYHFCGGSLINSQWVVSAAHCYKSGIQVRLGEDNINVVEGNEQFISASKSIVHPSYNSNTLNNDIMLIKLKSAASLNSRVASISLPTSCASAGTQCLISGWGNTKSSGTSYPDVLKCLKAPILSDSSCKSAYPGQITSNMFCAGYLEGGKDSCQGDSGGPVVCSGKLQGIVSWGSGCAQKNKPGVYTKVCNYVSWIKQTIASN
The experiment in a line: Inhibitory activity on trypsin. Format: biochemical. The procedure: (2) Inhibitory Activity on Trypsin
To a mixture of a 0.2 M HEPES.sodium hydroxide buffer solution (pH 8.0, 100 μl) and distilled water (640 μl), were added a test compound in various concentration or water (10 μl), and a solution of 80 mU/ml trypsin (derived from bovine pancreas) (50 μl) and then the mixture was preincubated for one minute at 30° C. To the solution thus obtained was added 2.5 mM BAPNA (200 μl) and the mixture was incubated at 30° C. The absorbance at 405 nm was measured. Percentage (%) of the absorbance in the presence of a test compound was calculated when the absorbance in the absence thereof was regarded as 100%, and therefrom IC50 value was calculated.
HEPES represents 4-2-hydroxyethyl)-1-piperazineethanesulfonic acid, and
BAPNA represents α-N-benzoyl-DL-arginine-p-nitroanilide hydrochloride.

In assay [2] the target is T3, PLA2 (derived from hog pancreas) (Sus scrofa, UniProt P00592).
T3 construct: a solution of 10 mU/ml PLA2 (derived from hog pancreas) (50 μl); from tissue; host or cells: hog pancreas
Description: Inhibitory activity on PLA2. It is filed as biochemical. To be noted: hog pancreas PLA2, 10PY-PC substrate, fluorescence, pH7.5. The procedure:
(1) Inhibitory Activity on PLA2
A reaction solution including 50 mM tris-HCl buffer (pH7.5, 874 μl; containing 100 mM sodium chloride, 1 mM EDTA), 1M calciumchloride (6 μl), 1% bovine serum albumin (10 μl) and 2.5 mM 10PY-PC (10 μl), was prepared. To the solution were added a test compound in various concentration or water (50 μl), and a solution of 10 mU/ml PLA2 (derived from hog pancreas) (50 μl). The appearance of fluorescence was measured (Ex=345 nm, Em=396 nm). Percentage (%) of the strength of fluorescence in the presence of a test compound was calculated when the strength of that in the absence thereof was regarded as 100%, and therefrom IC50 value was calculated.
10PY-PC represents 3′-palmitoyl-2-(1-pyrenedecanoyl)-L-α-phosphatidylcholine, […]

Where [3] appears, read: formula (IA) compounds, Table 17.
Where [4] appears, read: formula (IB) compounds, Table 18.
Where [5] appears, read: bovine pancreas trypsin, BAPNA substrate, 30° C., pH 8.0, read-out: inhibitory activity on trypsin IC50.

Where two headings read alike, the source gives them in different places.

T1 sequence (Q15722 whole entry): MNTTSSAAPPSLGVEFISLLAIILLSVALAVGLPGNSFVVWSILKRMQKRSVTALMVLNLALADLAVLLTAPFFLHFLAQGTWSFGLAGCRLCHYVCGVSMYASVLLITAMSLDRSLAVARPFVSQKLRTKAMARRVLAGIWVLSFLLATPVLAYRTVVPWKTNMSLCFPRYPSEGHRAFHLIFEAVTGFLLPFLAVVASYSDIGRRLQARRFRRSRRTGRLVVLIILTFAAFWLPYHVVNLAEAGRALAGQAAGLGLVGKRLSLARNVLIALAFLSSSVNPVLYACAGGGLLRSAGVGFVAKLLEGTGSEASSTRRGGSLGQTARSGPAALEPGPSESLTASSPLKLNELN
T3 sequence (P00592 23-146): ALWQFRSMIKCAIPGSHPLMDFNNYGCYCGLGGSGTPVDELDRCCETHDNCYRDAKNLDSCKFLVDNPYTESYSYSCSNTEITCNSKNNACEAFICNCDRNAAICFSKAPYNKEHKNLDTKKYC

Take `C=CCN(CC(=O)OCC)C(=O)/C(C)=C/c1ccc(C(=O)Oc2ccc(C(=N)N)cc2)cc1` [Compound 1]: at LTB4 receptor (setting [3]), the inhibition was determined as 91.5%.

On to `C=CCN(CC(=O)OCC)C(=O)COc1ccc(C(=O)Oc2ccc(C(=N)N)cc2)cc1` [Compound 2], for which, on LTB4 receptor (setting [4]), the inhibition was 79.7%. Moreover, the IC50 in assay [1] (setting [5]) came to 190 nM. For `CCOC(=O)CC[C@H](NC(=O)/C=C(\C)c1ccc(C(=O)Oc2ccc(C(=N)N)cc2)cc1)C(=O)OCC` [Compound 4], the inhibition at LTB4 receptor (setting [3]) was 63.7%. Regarding `CCOP(=O)(CCCc1ccccc1)Cc1ccc(C(=O)Oc2ccc(C(=N)N)cc2)cc1` (stereo not shown) [Compound 4], the inhibition on LTB4 receptor (setting [4]) was found to be 73.1%. The IC50 in assay [2] stood at 41000 nM; in assay [1] (setting [5]) it was 160 nM. Turning to `N=C(N)c1ccc(OC(=O)c2ccc(CN3CCC(c4ccccc4)CC3)cc2)cc1` [Compound 5], at LTB4 receptor (setting [4]), the inhibition is 89.7%. Further, the IC50 in assay [1] (setting [5]) came out at 130 nM. As for `CCOC(=O)CN(Cc1ccccc1)Cc1ccc(C(=O)Oc2ccc(C(=N)N)cc2)cc1` [Compound 6], the inhibition at LTB4 receptor (setting [4]) was 67.8%. Further, the figures for the IC50 in assay [2] and in assay [1] (setting [5]) were 4500 nM and 170 nM, respectively. For the molecule `C=CCN(CCCC(=O)OCC)C(=O)/C(C)=C/c1ccc(C(=O)Oc2ccc(C(=N)N)cc2)cc1` [Compound 14], on LTB4 receptor (setting [3]), the inhibition turned out to be 96.5%. In the case of `CCOC(=O)CCN(CC(=O)OCC)C(=O)/C(C)=C/c1ccc(C(=O)Oc2ccc(C(=N)N)cc2)cc1` [Compound 18], at LTB4 receptor (setting [3]), the inhibition came out at 87%.

Regarding `C=CCN(CCCC(=O)O)C(=O)/C(C)=C/c1ccc(C(=O)Oc2ccc(C(=N)N)cc2)cc1` [Compound 20], the inhibition on LTB4 receptor (setting [3]) came to 83.5%. On to `C/C(=C\c1ccc(C(=O)Oc2ccc(C(=N)N)cc2)cc1)C(=O)N(CC(=O)O)Cc1ccccc1` [Compound 21], for which the inhibition at LTB4 receptor (setting [3]) came out at 90.8%. Take `COCCCN(C(=O)/C(C)=C/c1ccc(C(=O)Oc2ccc(C(=N)N)cc2)cc1)C(C(=O)O)C(=O)O` [Compound 24]: the inhibition on LTB4 receptor (setting [3]) amounted to 61.2%. Regarding `N=C(N)C1=Cc2ccc(OC(=O)c3ccc(C(=O)N(Cc4ccccc4)c4ccccc4)cc3)cc2CC1` [Example 2(a)], on LTB4 receptor (setting [4]), the inhibition amounted to 92%. Besides, the IC50 in assay [2] is 2600 nM; in assay [1] (setting [5]), 400 nM. Regarding `C/C(=C\c1ccc(C(=O)Oc2ccc(C(=N)N)cc2)cc1)C(=O)N(CCC(=O)O)C1CCCCC1` [Example 2(aa)], the inhibition on LTB4 receptor (setting [4]) came to 94.4%.

On to `N=C(N)C1=Cc2ccc(OC(=O)c3ccc(C(=O)N(CC(=O)OCc4ccccc4)c4ccccc4)cc3)cc2CC1` [Example 2(b)], for which the inhibition at LTB4 receptor (setting [4]) amounted to 97.9%. The results for the concentration for half-maximal inhibition (IC50) in assay [2] and in assay [1] (setting [5]) were 3800 nM and 560 nM, respectively. Turning to `CCOC(=O)CN(CCOC)C(=O)/C(C)=C/c1ccc(C(=O)Oc2ccc(C(=N)N)cc2)cc1` [Example 2(bb)], the inhibition on LTB4 receptor (setting [4]) is 87.3%. For the molecule `CCOC(=O)CN(C(=O)c1ccc(C(=O)Oc2ccc3c(c2)CCC(C(=N)N)=C3)cc1)c1ccccc1` [Example 2(c)], the inhibition on LTB4 receptor (setting [4]) was found to be 103%. Moreover, the half-maximal inhibitory concentration (IC50) in assay [2] was 8100 nM; in assay [1] (setting [5]), 260 nM.

On to `C/C(=C\c1ccc(C(=O)Oc2ccc(C(=N)N)cc2)cc1)C(=O)N(CC(=O)O)CC1CCCO1` (stereo not shown) [Example 2(cc)], for which the inhibition on LTB4 receptor (setting [4]) is 76.7%. With `CCOC(=O)CN(C(=O)c1ccc(C(=O)Oc2ccc(/C=C/C(=N)N)cc2)cc1)c1ccccc1` [Example 2(d)], the inhibition at LTB4 receptor (setting [4]) worked out at 99.3%. The IC50 was 8700 nM in assay [2] and 140 nM in assay [1] (setting [5]). As to `C/C(=C\c1ccc(C(=O)Oc2ccc(C(=N)N)cc2)cc1)C(=O)N(CC(=O)O)CC1CCNCC1` [Example 2(dd)], the inhibition at LTB4 receptor (setting [4]) stood at 50.8%. Regarding `CCOC(=O)[C@H](COC(=O)c1ccccc1)NC(=O)/C(C)=C/c1ccc(C(=O)Oc2ccc(C(=N)N)cc2)cc1` [Example 2(e)], the inhibition on LTB4 receptor (setting [4]) amounted to 94.5%. Besides, the IC50 in assay [2] is 8500 nM; in assay [1] (setting [5]), 340 nM.

Turning to `C=CCN(CC(=O)O)C(=O)/C(C)=C/c1ccc(C(=O)Nc2ccc(C(=N)N)cc2)cc1` [Example 2(ee)], the inhibition on LTB4 receptor (setting [4]) came to 65.3%. `CCOC(=O)CC[C@H](NC(=O)c1ccc(/C=C/C(=O)Oc2ccc(C(=N)N)cc2)cc1)C(=O)OCC` [Example 2(f)]: the inhibition at LTB4 receptor (setting [4]) was 91.8%. Further, the figures for the IC50 in assay [2] and in assay [1] (setting [5]) were 70000 nM and 100 nM, respectively. In the case of `COc1cc(C(=N)N)ccc1OC(=O)c1ccc(C(=O)N(CCCc2ccccc2)C(Cc2ccccc2)Cc2ccccc2)cc1` [Example 2(ff)], at LTB4 receptor (setting [4]), the inhibition is 82.4%.

With `CCOC(=O)CC[C@H](NC(=O)c1ccc(/C=C(\C)C(=O)Oc2ccc(C(=N)N)cc2)cc1)C(=O)OCC` [Example 2(g)], the inhibition on LTB4 receptor (setting [4]) turned out to be 89.6%. For the same molecule, the IC50 in assay [2] is 53000 nM; in assay [1] (setting [5]), 160 nM. Turning to `CCOC(=O)/C=C/CC(NC(=O)/C(C)=C/c1ccc(C(=O)Oc2ccc(C(=N)N)cc2)cc1)(C(=O)OCC)C(=O)OCC` [Example 2(h)], the inhibition at LTB4 receptor (setting [4]) turned out to be 85.4%. Also, the IC50 amounted to 11000 nM in assay [2] and 150 nM in assay [1] (setting [5]). `C=CCN(CC(=O)OCC)C(=O)c1ccc(C(=O)Oc2ccc(/C=C/C(=N)N)cc2)cc1` [Example 2(i)]: the inhibition at LTB4 receptor (setting [4]) was determined as 69.6%. Besides, the results for the IC50 in assay [2] and in assay [1] (setting [5]) were 59000 nM and 140 nM, respectively. Regarding `CCOC(=O)CC[C@H](NC(=O)COc1ccc(C(=O)Oc2ccc(C(=N)N)cc2)cc1)C(=O)OCC` [Example 2(j)], the inhibition on LTB4 receptor (setting [4]) came to 55.4%. Also, the IC50 in assay [1] (setting [5]) worked out at 120 nM. Take `C=CCN(CC(=O)NCCN(C)C)C(=O)/C(C)=C/c1ccc(C(=O)Oc2ccc(C(=N)N)cc2)cc1` [Example 2(t)]: at LTB4 receptor (setting [4]), the inhibition was found to be 51.5%. Turning to `C=CCN(CC(=O)OCCN(C)C)C(=O)/C(C)=C/c1ccc(C(=O)Oc2ccc(C(=N)N)cc2)cc1` [Example 2(u)], on LTB4 receptor (setting [4]), the inhibition amounted to 67.6%.

For `C=CCN(CC(=O)Oc1ccc(C(=N)N)cc1)C(=O)/C(C)=C/c1ccc(C(=O)Oc2ccc(C(=N)N)cc2)cc1` [Example 2(v)], on LTB4 receptor (setting [4]), the inhibition stood at 92%. Regarding `C=CCN(CC(=O)NC(C(=O)OCC)C(=O)OCC)C(=O)/C(C)=C/c1ccc(C(=O)Oc2ccc(C(=N)N)cc2)cc1` [Example 2(w)], at LTB4 receptor (setting [4]), the inhibition is 76.7%. Same read-out and setting: to `C=CCN(CC=C)C(=O)CN(CC=C)C(=O)/C(C)=C/c1ccc(C(=O)Oc2ccc(C(=N)N)cc2)cc1` [Example 2(x)] belongs 94.1%; to `CCOC(=O)CN(C(=O)/C(C)=C/c1ccc(C(=O)Oc2ccc(C(=N)N)cc2)cc1)[C@@H](CC(C)C)C(=O)OCC` [Example 2(y)], 85.5%; to `CCOC(=O)CCN(CCC(C)C)C(=O)/C(C)=C/c1ccc(C(=O)Oc2ccc(C(=N)N)cc2)cc1` [Example 2(z)], 92.8%. For `CCOP(=O)(/C=C/c1ccc(C(=O)Oc2ccc(C(=N)N)cc2)cc1)OCC` [Example 4(a)], the inhibition at LTB4 receptor (setting [4]) came out at 52%. The molecule further showed a half-inhibitory concentration (IC50) in assay [1] of 140 nM. As for `N=C(N)c1ccc(OC(=O)c2ccc(Cn3ccnc3-c3ccccc3)cc2)cc1` [Example 5(a)], at LTB4 receptor (setting [4]), the inhibition is 62.5%. Besides, the IC50 in assay [1] (setting [5]) was 150 nM. Turning to `CCOC(=O)c1cc2ccccc2n1Cc1ccc(C(=O)Oc2ccc(C(=N)N)cc2)cc1` [Example 5(b)], the inhibition on LTB4 receptor (setting [4]) came out at 90.2%.
